Measured values taken from ChEMBL document CHEMBL1944561, “Discovery and SAR exploration of a novel series of imidazo[4,5-b]pyrazin-2-ones as potent and selective mTOR kinase inhibitors” (Bioorg Med Chem Lett, 2011).

Key:
[1] = biological target: Mast/stem cell growth factor receptor Kit (Homo sapiens) (UniProt P10721); test: Inhibition of cKit assessed as activity remaining at 10 uM
[2] = biological target: Fibroblast growth factor receptor 1 (Homo sapiens) (UniProt P11362); test: Inhibition of FGFR1 assessed as activity remaining at 10 uM
[3] = biological target: T1, Serine/threonine-protein kinase TBK1 (Homo sapiens) (UniProt Q9UHD2); test: Inhibition of TBK1 assessed as activity remaining at 10 uM
T1 sequence (whole entry): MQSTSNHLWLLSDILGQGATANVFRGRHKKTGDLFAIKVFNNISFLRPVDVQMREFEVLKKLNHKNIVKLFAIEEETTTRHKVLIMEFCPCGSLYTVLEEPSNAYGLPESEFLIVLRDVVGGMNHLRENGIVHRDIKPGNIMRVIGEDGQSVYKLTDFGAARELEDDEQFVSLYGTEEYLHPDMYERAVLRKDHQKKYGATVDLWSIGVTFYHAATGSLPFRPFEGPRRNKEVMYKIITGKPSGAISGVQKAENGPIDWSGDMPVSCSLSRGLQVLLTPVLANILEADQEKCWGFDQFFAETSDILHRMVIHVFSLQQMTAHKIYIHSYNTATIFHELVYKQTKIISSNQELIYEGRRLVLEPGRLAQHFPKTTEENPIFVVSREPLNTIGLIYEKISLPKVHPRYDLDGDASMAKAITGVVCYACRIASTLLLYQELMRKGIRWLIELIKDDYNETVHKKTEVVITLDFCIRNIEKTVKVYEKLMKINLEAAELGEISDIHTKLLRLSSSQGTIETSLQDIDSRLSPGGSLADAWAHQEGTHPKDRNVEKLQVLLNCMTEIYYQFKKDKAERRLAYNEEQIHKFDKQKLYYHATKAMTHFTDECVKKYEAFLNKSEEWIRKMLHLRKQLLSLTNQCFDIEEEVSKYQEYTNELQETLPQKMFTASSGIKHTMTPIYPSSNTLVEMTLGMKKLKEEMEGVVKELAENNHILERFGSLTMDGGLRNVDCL

[4] = biological target: Angiopoietin-1 receptor (Homo sapiens) (UniProt Q02763); test: Inhibition of Tie2 assessed as activity remaining at 10 uM
[5] = biological target: Mitogen-activated protein kinase kinase kinase 9 (Homo sapiens) (UniProt P80192); test: Inhibition of MLK1 assessed as activity remaining at 10 uM
[6] = biological target: Macrophage colony-stimulating factor 1 receptor (Homo sapiens) (UniProt P07333); test: Inhibition of Fms assessed as activity remaining at 10 uM
[7] = biological target: Mitogen-activated protein kinase 14 (Homo sapiens) (UniProt Q16539); test: Inhibition of p38alpha assessed as activity remaining at 10 uM
[8] = biological target: Dual specificity mitogen-activated protein kinase kinase 1 (Homo sapiens) (UniProt Q02750); test: Inhibition of MEK1 assessed as activity remaining at 10 uM
[9] = biological target: T2, Serine/threonine-protein kinase mTOR (Homo sapiens, UniProt P42345); test: Inhibition of mTOR-mediated Akt phosphorylation in human PC3 cells; format: cell-based, PC-3
[10] = biological target: RAC-alpha serine/threonine-protein kinase (Homo sapiens) (UniProt P31749); test: Inhibition of PKB-alpha assessed as activity remaining at 10 uM
[11] = Inhibition of AMPK assessed as activity remaining at 10 uM
[12] = biological target: Tyrosine-protein kinase Fyn (Homo sapiens) (UniProt P06241); test: Inhibition of Fyn assessed as activity remaining at 10 uM
[13] = biological target: T3, Inhibitor of nuclear factor kappa-B kinase subunit beta (Homo sapiens) (UniProt O14920); test: Inhibition of IKK-beta assessed as activity remaining at 10 uM
T3 sequence (whole entry): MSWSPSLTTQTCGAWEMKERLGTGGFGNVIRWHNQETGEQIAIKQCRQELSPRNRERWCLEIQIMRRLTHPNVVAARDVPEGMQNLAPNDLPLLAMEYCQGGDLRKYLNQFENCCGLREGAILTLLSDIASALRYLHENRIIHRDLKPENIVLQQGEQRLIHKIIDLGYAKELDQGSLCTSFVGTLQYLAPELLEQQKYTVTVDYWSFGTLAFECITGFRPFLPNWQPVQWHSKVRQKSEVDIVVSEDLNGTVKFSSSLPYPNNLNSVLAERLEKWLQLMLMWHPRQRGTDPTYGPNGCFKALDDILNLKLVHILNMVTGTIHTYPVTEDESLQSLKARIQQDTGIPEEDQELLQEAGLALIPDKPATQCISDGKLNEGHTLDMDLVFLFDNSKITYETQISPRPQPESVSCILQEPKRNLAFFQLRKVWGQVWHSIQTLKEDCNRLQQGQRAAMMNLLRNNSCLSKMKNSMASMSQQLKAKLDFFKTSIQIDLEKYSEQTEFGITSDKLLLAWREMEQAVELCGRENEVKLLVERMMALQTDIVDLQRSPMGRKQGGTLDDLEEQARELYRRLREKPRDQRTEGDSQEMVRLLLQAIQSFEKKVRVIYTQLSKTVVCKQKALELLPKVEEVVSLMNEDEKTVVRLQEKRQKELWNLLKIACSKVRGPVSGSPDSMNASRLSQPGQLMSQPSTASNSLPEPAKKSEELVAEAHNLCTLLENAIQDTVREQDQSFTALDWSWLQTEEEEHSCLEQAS

[14] = biological target: T4, Serine/threonine-protein kinase Nek2 (Homo sapiens) (UniProt P51955); test: Inhibition of NEK2 assessed as activity remaining at 10 uM
T4 sequence (whole entry): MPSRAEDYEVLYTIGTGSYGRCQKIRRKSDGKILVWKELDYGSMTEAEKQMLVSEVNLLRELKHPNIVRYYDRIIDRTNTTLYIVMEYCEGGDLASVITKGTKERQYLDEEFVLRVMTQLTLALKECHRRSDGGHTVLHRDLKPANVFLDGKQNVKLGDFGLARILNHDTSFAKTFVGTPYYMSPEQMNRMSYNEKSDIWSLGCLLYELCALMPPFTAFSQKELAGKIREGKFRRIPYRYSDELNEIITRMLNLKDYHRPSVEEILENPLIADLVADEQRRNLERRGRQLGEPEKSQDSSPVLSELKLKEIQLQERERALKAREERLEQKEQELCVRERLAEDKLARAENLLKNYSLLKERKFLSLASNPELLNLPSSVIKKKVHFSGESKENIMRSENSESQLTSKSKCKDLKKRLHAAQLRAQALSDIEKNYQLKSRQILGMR

[15] = biological target: Rho-associated protein kinase 1 (Homo sapiens) (UniProt Q13464); test: Inhibition of ROCK1 assessed as activity remaining at 10 uM
[16] = biological target: Serine/threonine-protein kinase PLK3 (Homo sapiens) (UniProt Q9H4B4); test: Inhibition of Plk3 assessed as activity remaining at 10 uM
[17] = biological target: T2, Serine/threonine-protein kinase mTOR; test: Inhibition of mTOR-mediated S6 phosphorylation in human PC3 cells; format: cell-based, PC-3

Sequence of Mast/stem cell growth factor receptor Kit (Homo sapiens) (P10721 whole entry): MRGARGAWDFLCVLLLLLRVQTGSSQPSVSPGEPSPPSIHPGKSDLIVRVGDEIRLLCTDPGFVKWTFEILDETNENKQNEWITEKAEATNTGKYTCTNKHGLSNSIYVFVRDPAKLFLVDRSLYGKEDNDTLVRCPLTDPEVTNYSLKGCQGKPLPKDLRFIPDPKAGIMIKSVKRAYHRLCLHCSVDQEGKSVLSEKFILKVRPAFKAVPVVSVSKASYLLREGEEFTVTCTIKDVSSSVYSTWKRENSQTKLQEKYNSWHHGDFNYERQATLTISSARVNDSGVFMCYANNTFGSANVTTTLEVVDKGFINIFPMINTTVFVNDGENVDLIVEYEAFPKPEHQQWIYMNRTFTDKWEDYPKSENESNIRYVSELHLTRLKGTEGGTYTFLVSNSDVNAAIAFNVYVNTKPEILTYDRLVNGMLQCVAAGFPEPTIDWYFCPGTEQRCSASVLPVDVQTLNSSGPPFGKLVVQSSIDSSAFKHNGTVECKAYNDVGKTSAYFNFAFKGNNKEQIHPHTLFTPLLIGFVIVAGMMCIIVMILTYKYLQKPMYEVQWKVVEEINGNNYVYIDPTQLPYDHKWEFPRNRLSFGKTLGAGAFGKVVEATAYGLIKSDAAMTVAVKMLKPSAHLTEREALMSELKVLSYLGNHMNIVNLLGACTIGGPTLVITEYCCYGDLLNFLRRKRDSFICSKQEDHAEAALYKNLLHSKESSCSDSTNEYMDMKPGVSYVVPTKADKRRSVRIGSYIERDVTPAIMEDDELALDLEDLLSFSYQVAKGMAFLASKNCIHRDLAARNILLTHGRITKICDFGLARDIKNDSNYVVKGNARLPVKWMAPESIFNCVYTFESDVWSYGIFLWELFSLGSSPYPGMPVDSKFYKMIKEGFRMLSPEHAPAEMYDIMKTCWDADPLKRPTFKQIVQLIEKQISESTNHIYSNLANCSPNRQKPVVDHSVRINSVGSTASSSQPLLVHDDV
Sequence of Dual specificity mitogen-activated protein kinase kinase 1 (Homo sapiens) (Q02750 whole entry): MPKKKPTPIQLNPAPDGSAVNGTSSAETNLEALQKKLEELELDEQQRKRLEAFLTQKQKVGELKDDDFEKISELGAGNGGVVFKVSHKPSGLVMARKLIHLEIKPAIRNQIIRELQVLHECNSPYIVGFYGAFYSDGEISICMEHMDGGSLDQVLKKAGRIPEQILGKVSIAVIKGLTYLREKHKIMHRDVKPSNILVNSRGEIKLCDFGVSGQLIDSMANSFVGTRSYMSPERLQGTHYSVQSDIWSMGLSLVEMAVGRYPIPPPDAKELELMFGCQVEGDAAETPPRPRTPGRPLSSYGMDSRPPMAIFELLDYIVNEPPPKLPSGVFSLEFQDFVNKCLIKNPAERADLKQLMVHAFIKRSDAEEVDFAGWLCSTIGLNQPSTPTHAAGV
Sequence of Fibroblast growth factor receptor 1 (Homo sapiens) (P11362 22-822 limits assumed): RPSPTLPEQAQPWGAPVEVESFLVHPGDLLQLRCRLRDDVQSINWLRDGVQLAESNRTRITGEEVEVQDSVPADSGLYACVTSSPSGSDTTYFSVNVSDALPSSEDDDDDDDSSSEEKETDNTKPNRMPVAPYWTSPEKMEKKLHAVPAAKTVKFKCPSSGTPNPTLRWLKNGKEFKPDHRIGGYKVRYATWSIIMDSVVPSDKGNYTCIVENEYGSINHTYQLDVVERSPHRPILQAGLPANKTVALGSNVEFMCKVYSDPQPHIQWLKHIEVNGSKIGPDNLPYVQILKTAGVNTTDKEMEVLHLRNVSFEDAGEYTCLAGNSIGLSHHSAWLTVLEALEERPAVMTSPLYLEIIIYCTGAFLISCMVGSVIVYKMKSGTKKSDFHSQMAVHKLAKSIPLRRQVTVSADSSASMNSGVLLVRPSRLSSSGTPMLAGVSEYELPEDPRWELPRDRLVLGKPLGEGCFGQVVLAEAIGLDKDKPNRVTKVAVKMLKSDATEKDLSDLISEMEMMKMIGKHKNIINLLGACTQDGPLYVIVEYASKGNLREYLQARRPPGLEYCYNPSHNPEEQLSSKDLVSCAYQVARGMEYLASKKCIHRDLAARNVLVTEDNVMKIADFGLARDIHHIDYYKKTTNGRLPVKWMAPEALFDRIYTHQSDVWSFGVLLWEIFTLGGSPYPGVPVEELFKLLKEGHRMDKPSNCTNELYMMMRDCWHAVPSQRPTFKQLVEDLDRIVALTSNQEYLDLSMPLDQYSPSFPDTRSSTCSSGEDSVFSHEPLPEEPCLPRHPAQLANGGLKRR
Sequence of Mitogen-activated protein kinase 14 (Homo sapiens) (Q16539 whole entry): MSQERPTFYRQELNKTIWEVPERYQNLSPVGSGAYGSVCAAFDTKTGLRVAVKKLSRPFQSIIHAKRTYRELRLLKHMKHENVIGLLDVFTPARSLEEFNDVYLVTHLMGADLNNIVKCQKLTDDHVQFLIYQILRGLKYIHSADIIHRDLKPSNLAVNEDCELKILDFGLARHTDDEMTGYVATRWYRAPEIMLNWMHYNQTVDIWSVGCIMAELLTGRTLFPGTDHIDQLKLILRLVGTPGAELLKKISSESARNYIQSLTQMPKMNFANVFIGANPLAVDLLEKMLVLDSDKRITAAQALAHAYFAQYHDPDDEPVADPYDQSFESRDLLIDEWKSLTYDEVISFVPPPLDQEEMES
Sequence of Mitogen-activated protein kinase kinase kinase 9 (Homo sapiens) (P80192 whole entry, looked up): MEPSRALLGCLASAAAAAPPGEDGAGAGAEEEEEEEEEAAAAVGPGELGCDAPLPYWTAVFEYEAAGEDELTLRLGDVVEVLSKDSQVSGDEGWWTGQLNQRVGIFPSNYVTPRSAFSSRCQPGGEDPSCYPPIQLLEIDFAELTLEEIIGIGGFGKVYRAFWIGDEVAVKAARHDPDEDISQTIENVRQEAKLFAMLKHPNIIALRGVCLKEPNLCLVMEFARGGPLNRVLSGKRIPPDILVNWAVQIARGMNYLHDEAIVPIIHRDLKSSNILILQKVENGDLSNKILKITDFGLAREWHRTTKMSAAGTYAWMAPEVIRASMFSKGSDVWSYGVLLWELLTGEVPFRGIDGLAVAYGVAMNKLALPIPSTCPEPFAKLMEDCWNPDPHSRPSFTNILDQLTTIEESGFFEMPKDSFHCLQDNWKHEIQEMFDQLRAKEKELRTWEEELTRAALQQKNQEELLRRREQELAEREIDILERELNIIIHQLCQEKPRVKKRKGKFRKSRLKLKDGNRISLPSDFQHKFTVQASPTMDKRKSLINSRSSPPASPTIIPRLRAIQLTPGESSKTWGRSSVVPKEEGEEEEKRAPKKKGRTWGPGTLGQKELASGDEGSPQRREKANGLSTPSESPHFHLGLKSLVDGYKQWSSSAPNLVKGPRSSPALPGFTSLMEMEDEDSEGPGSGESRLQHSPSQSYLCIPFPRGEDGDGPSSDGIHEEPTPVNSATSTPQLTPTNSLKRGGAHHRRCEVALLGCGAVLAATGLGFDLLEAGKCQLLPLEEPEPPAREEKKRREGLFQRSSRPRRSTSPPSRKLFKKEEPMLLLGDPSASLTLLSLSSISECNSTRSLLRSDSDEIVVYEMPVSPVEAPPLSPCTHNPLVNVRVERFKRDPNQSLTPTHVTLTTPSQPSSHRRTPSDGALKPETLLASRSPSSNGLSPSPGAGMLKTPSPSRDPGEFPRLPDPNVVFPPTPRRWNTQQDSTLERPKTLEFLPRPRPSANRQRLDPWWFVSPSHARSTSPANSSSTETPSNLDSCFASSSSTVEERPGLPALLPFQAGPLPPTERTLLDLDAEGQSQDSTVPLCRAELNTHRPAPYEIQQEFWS
Sequence of Angiopoietin-1 receptor (Homo sapiens) (Q02763 whole entry): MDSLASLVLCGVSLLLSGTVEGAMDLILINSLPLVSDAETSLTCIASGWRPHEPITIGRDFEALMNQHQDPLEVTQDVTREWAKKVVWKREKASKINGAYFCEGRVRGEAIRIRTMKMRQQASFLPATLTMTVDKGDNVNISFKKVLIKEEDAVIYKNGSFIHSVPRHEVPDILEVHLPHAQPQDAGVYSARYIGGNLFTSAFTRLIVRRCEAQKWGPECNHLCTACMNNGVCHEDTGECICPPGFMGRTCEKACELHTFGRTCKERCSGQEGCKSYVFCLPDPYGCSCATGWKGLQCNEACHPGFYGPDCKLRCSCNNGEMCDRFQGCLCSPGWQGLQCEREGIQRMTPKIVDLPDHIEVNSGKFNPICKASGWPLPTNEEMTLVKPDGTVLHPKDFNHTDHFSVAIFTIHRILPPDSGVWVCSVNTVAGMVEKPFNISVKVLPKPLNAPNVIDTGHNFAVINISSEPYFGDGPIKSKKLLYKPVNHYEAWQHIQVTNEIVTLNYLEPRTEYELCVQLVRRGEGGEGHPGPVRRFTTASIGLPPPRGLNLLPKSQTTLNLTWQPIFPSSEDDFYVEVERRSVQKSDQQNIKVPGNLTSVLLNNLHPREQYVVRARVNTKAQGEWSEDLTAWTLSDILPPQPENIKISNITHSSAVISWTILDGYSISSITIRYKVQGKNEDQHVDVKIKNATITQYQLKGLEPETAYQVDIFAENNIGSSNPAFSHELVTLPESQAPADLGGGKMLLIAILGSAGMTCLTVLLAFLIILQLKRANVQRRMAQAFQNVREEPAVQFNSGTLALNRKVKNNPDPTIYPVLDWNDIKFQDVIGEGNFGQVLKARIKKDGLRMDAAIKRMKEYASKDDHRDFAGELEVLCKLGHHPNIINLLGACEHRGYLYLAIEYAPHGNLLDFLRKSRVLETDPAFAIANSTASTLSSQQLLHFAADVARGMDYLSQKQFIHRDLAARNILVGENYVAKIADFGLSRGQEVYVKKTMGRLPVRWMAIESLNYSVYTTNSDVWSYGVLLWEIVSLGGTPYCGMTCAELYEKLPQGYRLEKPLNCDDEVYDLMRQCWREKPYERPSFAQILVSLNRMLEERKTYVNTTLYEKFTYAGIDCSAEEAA

| Activity [1] | Activity [2] | Activity [3] | Activity [4] | Activity [5] | Activity [6] | Activity [7] | Activity [8] | IC50 [9] | Activity [10] | Activity [11] | Activity [12] | Activity [13] | Activity [14] | Activity [15] | Activity [16] | IC50 [17] | Compound |
| --- | --- | --- | --- | --- | --- | --- | --- | --- | --- | --- | --- | --- | --- | --- | --- | --- | --- |
| 94% | 63% | 77% | 83% | 49% | 23% | 75% | 79% | 137 nM | 92% | 76% | 67% | 82% | 98% | 96% | 94% | 427 nM | O=c1[nH]c2ncc(-c3ccc4[nH]cnc4c3)nc2n1CC1CCCCC1 |
| 95% | 93% | 94% | 86% | 86% | 37% | 92% | 84% | 150 nM | 97% | 101% | 102% | 98% | 103% | 96% | 108% | 273 nM | O=c1[nH]c2ncc(-c3ccc(-c4nc[nH]n4)cc3)nc2n1CC1CCOCC1 |
| 83% | 94% | 91% | 85% | 80% | 26% | 92% | 82% | 322 nM | 94% | 89% | 73% | 91% | 98% | 97% | 89% | 1350 nM | CC(C)(O)c1ccc(-c2cnc3[nH]c(=O)n(CC4CCCCC4)c3n2)cc1 |
